Data: paper PMC10145360, “Antiplatelet Aggregation Properties of Cirsilineol: A Novel Inhibitor of Blood Coagulation Factor Xa” (Pharmaceuticals, 2023)
Marks after values point to notes of the source that are not given here.

Legend:
PRP = experiment: FXa-induced platelet aggregation; format: cell-based, human; settings: FXa 52 µg/mL; PRP preincubated 5 min
Method: Figure 5 Effects of CSL on the catalytic activity and production of FXa. […] Plots show the average values of five independent measurements. (B) HUVECs pre-incubated with the indicated concentrations of CSL for 10 min were stimulated with TNF-α (10 ng/mL) for 6 h and incubated with FX (175 nM) and FVIIa (10 nM) with/without anti-tissue factor antibody (25 µg/mL). The production of FXa was characterized as described in the Methods section. (C) PRP was preincubated for 5 min with different concentrations of CSL, Riva, or the vehicle. Platelet aggregation was initiated with FXa (52 µg/mL), and the platelet aggregation was recorded using an aggregometer. Data are shown as mean values ± SD of five independent experiments. * p < 0.05 vs. TNF-α alone (B) or FXa (C). D = 0.2% DMSO, used as the vehicle control.
CSL dissolved in DMSO was incubated with human PRP for a specified time (1, 3, 5, or 10 min). Next, PRP was activated by the addition of collagen (1 μg/mL), ADP (10 μM), U46619 (6 μM), or thrombin (3 U/mL), and the amount of platelet aggregation was measured using an aggregometer (Chronolog, Havertown, PA, USA).

[1] = test system: human umbilical vein endothelial cells (HUVECs); experiment: NO and ET-1 production, ELISA; format: cell-based; settings: ADP or U46619 treated
[2] = test system: platelet-poor plasma (PPP); experiment: Ex vivo aPTT clotting time after intravenous injection; format: in vivo, mouse; settings: mice
Method: First, the potential cytotoxicity of […] on HUVECs was assessed using the 3-(4,5-dimethylthiazol-2-yl)-2,5-diphenyltetrazolium bromide (MTT) assay. […] The activated partial thromboplastin time (aPTT) and prothrombin time (PT), two coagulation parameters altered by CSL in vitro, were assessed first. We used the direct FXa inhibitor rivaroxaban as a positive control for our experiments. […] In the aPTT experiments, rivaroxaban at 8.38 μM and CSL at 7.23 μM, respectively, doubled the clotting time. Each mouse group (n = 5) received intravenous injections of CSL for 4 consecutive days to validate the in vitro results in an ex vivo experiment. […] In the ex vivo aPTT assays, treatment with CSL at 0.25 mg/kg and rivaroxaban at 0.29 mg/kg, respectively, doubled the clotting time. The average blood volume was determined to be 2 mL based on an estimated circulating blood volume for mice of 72 mL/kg and an average weight of 27 g for each animal used in this investigation. As a result, the estimated concentration of CSL in the peripheral blood after each injection ([…]) was 2.5, 5, 10, or 20 μM, respectively.
(§1) Figure 2 Effects of CSL on clotting time. (A) Platelet-poor plasma (PPP) was incubated with the indicated concentrations of CSL or rivaroxaban (Riva) for 15 min. (B) One hour after administering DMSO, CSL, or Riva, blood was collected from the mice, and PPP was obtained. Then, in vitro aPTT (A) or ex vivo aPTT was measured, as described in the Methods sections. Data are shown as mean values ± SD of five independent experiments. * p < 0.05 vs. D. D = 0.2% DMSO, used as the vehicle control.
Male C57BL/6 mice aged 7 weeks (mean weight: 27 g) were purchased from Orient Bio Co., in Sungnam, Republic of Korea, and were subjected to a 12-day acclimatization phase. […]
Plasma was taken by centrifuging blood (2000× g for 10 min) at room temperature following dimethyl sulfoxide (DMSO) or CSL administration for 1 h to assess PT and aPTT using a thrombotimer (Behnk Elektronik, Norderstedt, Germany). […] Next, the clotting time was measured.

[3] = test system: collagen and epinephrine-induced pulmonary thrombosis; experiment: Acute pulmonary thrombosis induced by collagen and epinephrine; format: in vivo, mouse; settings: for Mortality %: then collagen + epinephrine, mice; for Scored thrombus formation (Thrombi), lung: graded as thrombi per 25 mm^2 lung field
Method: Mice were separated into several groups after being fasted overnight (10 animals each). CSL was dissolved in DMSO and given intravenously to each mouse. After 1 h, the animals received an injection of collagen and epinephrine mixture (500 μg/kg each) to induce acute thrombosis. Each mouse was closely observed for 15 min to see if it had recovered from the acute thrombosis challenge, had been paralyzed, or had passed away. H&E-stained lung tissue slices from five mice were randomly selected for the histologic investigation to determine the extent of pulmonary thrombus development. The number of arteries greater than 20 μm in diameter with any detectable thrombus was counted in each of the five view fields randomly selected from the left lobe in each section (one section per mouse). Twenty-five fields for each group were compared as a result. A total of 60–80 vessels in each segment were imaged using the system (Leica, Germany). The results were graded as the number of thrombi per 25 mm^2 lung field as previously described.

[4] = test system: platelet-poor plasma (PPP); experiment: In vitro aPTT clotting time in platelet-poor plasma; set-up: species or system human
Method: as §1
Ten fasting healthy volunteers (aged 24–28; six women and four men) who were free of allergies, cardiovascular problems, carbohydrate, or lipid metabolic abnormalities and had not taken any morning medication had their blood samples taken. None of our subjects used addictive drugs or antioxidant food supplements, and their diets were well balanced. The plasma from the blood samples was immediately spun down (1300× g for 15 min) to separate it from sodium citrate (10.9 mM) and pooled for the following investigations. Next, human blood samples were spun down at room temperature to rapidly separate the PRP. The PRP concentration was adjusted to 1 × 10^9 platelets/mL using a hemocytometer. After being rinsed once in HEPES buffer containing 1 mM CaCl2, the PRP pellet was maintained at room temperature for an additional 30 min. Then, 10 mL of the platelet samples were utilized to measure each clotting time point. The IRB of Kyungpook National University Hospital (Daegu, Republic of Korea) approved this study protocol (KNUH 2012-01-010).
Plasma was taken by centrifuging blood (2000× g for 10 min) at room temperature following dimethyl sulfoxide (DMSO) or CSL administration for 1 h to assess PT and aPTT using a thrombotimer (Behnk Elektronik, Norderstedt, Germany). Micronized silica was utilized as an activator for the aPTT test. Briefly, 100 μL of platelet-poor plasma (PPP) and 100 μL of aPTT assay reagent were combined for 1 min at 37 °C, 100 µL of CaCl2 (20 mM) was added, and the clotting times were noted. […] Next, the clotting time was measured.

## COc1cc(-c2cc(=O)c3c(O)c(OC)c(OC)cc3o2)ccc1O [CSL, 4,5-dihydroxy-3,6,7-trimethoxyflavone]
PRP
  platelet aggregation brought on by FXa: dramatically reduced
[1]
  NO secretion: returned the decreased NO secretion caused by ADP or U46619 to their baseline levels
  production of ET-1: returned the increased production of ET-1
[2]; intravenous
  dose that doubled the clotting time (ex vivo aPTT): 0.25 mg/kg
[2]; intravenous injections for 4 consecutive days
  blood clotting time ex vivo (aPTT): dramatically increased blood clotting time
[3]; 0.13 mg/kg intravenous
  Mortality %: 85 ^# %
  Scored thrombus formation (Thrombi), lung: 3.5 ± 0.1
[3]; 0.26 mg/kg intravenous
  Mortality %: 80 ^# %
  Scored thrombus formation (Thrombi), lung: 2.5 ± 0.1
[3]; 0.51 mg/kg intravenous
  Mortality %: 60 ^# %
  Scored thrombus formation (Thrombi), lung: 1.8 ± 0.2
[4]; PPP incubated 15 min
  concentration that doubled the clotting time (in vitro aPTT): 7.23 µM
[4]; doses between 5 and 20 M
  aPTT in vitro: considerably slowed the aPTT
